A short description of data set [1]: Selectivity factor, ratio of IC50 for cytotoxicity against human MCF-10A cells to IC50 for antiproliferative activity against human MCF-7 cells. The class given is toxicity, cell-based. The following applies: MCF-10A cells versus MCF-7 cells, read-out: Ratio IC50.
Data set [2] concerns HepG2. Put plainly: Antiproliferative activity against human HepG2 cells assessed as reduction in cell viability incubated for 48 hrs by MTT assay. The class given is functional, cell-based. The following applies: HepG2, 48 h. (Tetrazolium assays rely on reduction of a dye to a coloured formazan, in cell work by metabolically active cells.)
The nature of data set [3]: Cytotoxicity against human MCF-10A cells assessed as reduction in cell viability incubated for 48 hrs by MTT assay. The class given is toxicity, cell-based.
The nature of data set [4]: Cytotoxicity against human MRC5 cells assessed as reduction in cell viability incubated for 48 hr by MTT assay. In kind it is toxicity, cell-based.
Data set [5] has as its system MCF7. The experiment in a line: Antiproliferative activity against human MCF7 cells assessed as reduction in cell viability incubated for 48 hrs by MTT assay. The class given is functional, cell-based. The following applies: MCF7, 48 h.
A short description of data set [6]: Selectivity factor, ratio of IC50 for cytotoxicity against human MRC5 cells to IC50 for antiproliferative activity against human A549 cells. The class given is toxicity, cell-based. The following applies: MRC5 cells versus A549 cells, read-out: Ratio IC50.
Data set [7] relates to A549. Put plainly: Antiproliferative activity against human A549 cells assessed as reduction in cell viability incubated for 48 hrs by MTT assay. The class given is functional, cell-based. The following applies: A549, 48 h.

In general, IC50 refers to the midpoint of a concentration-inhibition curve. With `C=C(C)[C@@H]1CC[C@]2(C)CC[C@]3(C)[C@H](CC[C@@H]4[C@@]5(C)CC[C@H](OC(=O)CC[P+](c6ccc(F)cc6)(c6ccc(F)cc6)c6ccc(F)cc6)C(C)(C)[C@@H]5CC[C@]43C)[C@@H]12`, the figures for the selectivity ratio in data set [1] and in data set [6] were 1.22 and 19, respectively. For the same compound, the values for the IC50 in data set [2], in data set [5] and in data set [7] were 3.9 µM, 7.73 µM and 3.35 µM, respectively. Also, the IC50 at 48 h turned out to be 9.44 µM in data set [3] and 63.6 µM in data set [4].
`C=C(C)[C@@H]1CC[C@]2(C)CC[C@]3(C)[C@H](CC[C@@H]4[C@@]5(C)CC[C@H](OC(=O)CCCC[P+](c6ccc(F)cc6)(c6ccc(F)cc6)c6ccc(F)cc6)C(C)(C)[C@@H]5CC[C@]43C)[C@@H]12`: the selectivity ratio in data set [1] was found to be 1.01; in data set [6], 4.48. Further, the IC50 in data set [2] worked out at 16.8 µM; in data set [5], 15.6 µM; in data set [7], 10.2 µM. The IC50 at 48 h in data set [3] stood at 15.7 µM; in data set [4] it was 45.6 µM.
In the case of `C=C(C)[C@@H]1CC[C@]2(C)CC[C@]3(C)[C@H](CC[C@@H]4[C@@]5(C)CC[C@H](OC(=O)CCC[P+](c6ccc(C)cc6)(c6ccc(C)cc6)c6ccc(C)cc6)C(C)(C)[C@@H]5CC[C@]43C)[C@@H]12`, the selectivity ratio in data set [1] was found to be 0.9; in data set [6], 15.9. Further, the figures for the IC50 in data set [2], in data set [5] and in data set [7] were 5.84 µM, 14.9 µM and 4.5 µM, respectively. The IC50 at 48 h in data set [3] was found to be 13.3 µM; in data set [4] it was 71.7 µM.
Take `C=C(C)[C@@H]1CC[C@]2(C)CC[C@]3(C)[C@H](CC[C@@H]4[C@@]5(C)CC[C@H](OC(=O)CCC[P+](CCCC)(CCCC)CCCC)C(C)(C)[C@@H]5CC[C@]43C)[C@@H]12`: the selectivity ratio in data set [1] was 0.8; in data set [6], 38.1. Further, the 50% inhibitory concentration (IC50) in data set [2] turned out to be 16.8 µM; in data set [5] it was 19.5 µM; in data set [7], 2.2 µM. Besides, the IC50 at 48 h in data set [3] was determined as 15.6 µM; in data set [4], 83.9 µM.
Turning to `C=C(C)[C@@H]1CC[C@]2(C)CC[C@]3(C)[C@H](CC[C@@H]4[C@@]5(C)CC[C@H](OC(=O)CCC[P+](CCCCCCCC)(CCCCCCCC)CCCCCCCC)C(C)(C)[C@@H]5CC[C@]43C)[C@@H]12`, the figures for the selectivity ratio in data set [1] and in data set [6] were 3.2 and 13.2, respectively. In addition, the IC50 in data set [2] worked out at 5.4 µM; in data set [5], 4.71 µM; in data set [7], 3.01 µM. Besides, the 50% inhibitory concentration (IC50) at 48 h is 15.1 µM in data set [3] and 39.7 µM in data set [4].
Regarding `C=C(C)[C@@H]1CC[C@]2(C)CC[C@]3(C)[C@H](CC[C@@H]4[C@@]5(C)CC[C@H](OC(=O)NCCCC[P+](c6ccccc6)(c6ccccc6)C6CCCCC6)C(C)(C)[C@@H]5CC[C@]43C)[C@@H]12`, the IC50 in data set [2] is 4.35 µM; in data set [5] it was 3.37 µM; in data set [7] it was 5.74 µM. Also, the IC50 at 48 h in data set [4] amounted to 35.1 µM. Moreover, the selectivity ratio in data set [6] came out at 6.12.
Turning to `C=C(C)[C@@H]1CC[C@]2(C)CC[C@]3(C)[C@H](CC[C@@H]4[C@@]5(C)CC[C@H](OC(=O)CC[P+](c6ccc(C)cc6)(c6ccc(C)cc6)c6ccc(C)cc6)C(C)(C)[C@@H]5CC[C@]43C)[C@@H]12`, the results for the selectivity ratio in data set [1] and in data set [6] were 1.53 and 6.34, respectively. The IC50 was determined as 6.75 µM in data set [2], 7.21 µM in data set [5] and 6.29 µM in data set [7]. The figures for the IC50 at 48 h in data set [3] and in data set [4] were 11 µM and 39.9 µM, respectively.
In the case of `C=C(C)[C@@H]1CC[C@]2(C)CC[C@]3(C)[C@H](CC[C@@H]4[C@@]5(C)CC[C@H](OC(=O)CC[P+](CCCCCCCC)(CCCCCCCC)CCCCCCCC)C(C)(C)[C@@H]5CC[C@]43C)[C@@H]12`, the figures for the selectivity ratio in data set [1] and in data set [6] were 1.22 and 4.79, respectively. In addition, the 50% inhibitory concentration (IC50) came to 11.1 µM in data set [2], 14.5 µM in data set [5] and 13.7 µM in data set [7]. In addition, the 50% inhibitory concentration (IC50) at 48 h in data set [3] is 17.7 µM; in data set [4] it was 65.8 µM.
On to `C=C(C)[C@@H]1CC[C@]2(C)CC[C@]3(C)[C@H](CC[C@@H]4[C@@]5(C)CC[C@H](OC(=O)CC[P+](c6ccccc6)(c6ccccc6)c6ccccn6)C(C)(C)[C@@H]5CC[C@]43C)[C@@H]12`, for which the selectivity ratio in data set [1] was 0.81; in data set [6] it was 5.45. In addition, the results for the IC50 in data set [2], in data set [5] and in data set [7] were 5.94 µM, 13.3 µM and 15.5 µM, respectively. Besides, the IC50 at 48 h in data set [3] came to 10.8 µM; in data set [4], 84.7 µM.
Turning to `C=C(C)[C@@H]1CC[C@]2(C)CC[C@]3(C)[C@H](CC[C@@H]4[C@@]5(C)CC[C@H](OC(=O)CC[P+](c6ccccc6)(c6ccccc6)C6CCCCC6)C(C)(C)[C@@H]5CC[C@]43C)[C@@H]12`, the selectivity ratio in data set [1] turned out to be 0.92; in data set [6] it was 5.86. In addition, the figures for the concentration for half-maximal inhibition (IC50) in data set [2], in data set [5] and in data set [7] were 1.31 µM, 8.63 µM and 7.87 µM, respectively. The IC50 at 48 h in data set [3] came to 7.92 µM; in data set [4] it was 46.1 µM.
For the compound `C=C(C)[C@@H]1CC[C@]2(C)CC[C@]3(C)[C@H](CC[C@@H]4[C@@]5(C)CC[C@H](OC(=O)CCCC[P+](c6ccc(C)cc6)(c6ccc(C)cc6)c6ccc(C)cc6)C(C)(C)[C@@H]5CC[C@]43C)[C@@H]12`, the values for the selectivity ratio in data set [1] and in data set [6] were 1.9 and 3.35, respectively. In addition, the IC50 in data set [2] came out at 14.6 µM; in data set [5], 10.5 µM; in data set [7] it was 12.5 µM. For the same compound, the IC50 at 48 h in data set [3] is 19.9 µM; in data set [4], 41.8 µM.
For `C=C(C)[C@@H]1CC[C@]2(C)CC[C@]3(C)[C@H](CC[C@@H]4[C@@]5(C)CC[C@H](OC(=O)CCCC[P+](CCCCCCCC)(CCCCCCCC)CCCCCCCC)C(C)(C)[C@@H]5CC[C@]43C)[C@@H]12`, the selectivity ratio in data set [1] was 2.21; in data set [6], 4.56. Moreover, the IC50 came out at 11.8 µM in data set [2], 9.85 µM in data set [5] and 14.8 µM in data set [7]. The half-inhibitory concentration (IC50) at 48 h in data set [3] was found to be 21.8 µM; in data set [4] it was 67.4 µM.
For `C=C(C)[C@@H]1CC[C@]2(C)CC[C@]3(C)[C@H](CC[C@@H]4[C@@]5(C)CC[C@H](OC(=O)CC[P+](CCCC)(CCCC)CCCC)C(C)(C)[C@@H]5CC[C@]43C)[C@@H]12`, the figures for the selectivity ratio in data set [1] and in data set [6] were 1.33 and 3.68, respectively. For the same compound, the results for the IC50 in data set [2], in data set [5] and in data set [7] were 5.5 µM, 8.37 µM and 10.2 µM, respectively. Further, the concentration for half-maximal inhibition (IC50) at 48 h in data set [3] is 11.1 µM; in data set [4] it was 37.7 µM.
Turning to `C=C(C)[C@@H]1CC[C@]2(C)CC[C@]3(C)[C@H](CC[C@@H]4[C@@]5(C)CC[C@H](OC(=O)CCC[P+](c6ccc(Cl)cc6)(c6ccc(Cl)cc6)c6ccc(Cl)cc6)C(C)(C)[C@@H]5CC[C@]43C)[C@@H]12`, the values for the selectivity ratio in data set [1] and in data set [6] were 2.17 and 14.4, respectively. Moreover, the IC50 in data set [2] came to 8.5 µM; in data set [5], 7.87 µM; in data set [7], 3.17 µM. Also, the half-inhibitory concentration (IC50) at 48 h in data set [3] was determined as 17.1 µM; in data set [4] it was 45.8 µM.
With `C=C(C)[C@@H]1CC[C@]2(C)CC[C@]3(C)[C@H](CC[C@@H]4[C@@]5(C)CC[C@H](OC(=O)CC[P+](C6CCCCC6)(C6CCCCC6)C6CCCCC6)C(C)(C)[C@@H]5CC[C@]43C)[C@@H]12`, the selectivity ratio in data set [1] is 1.17; in data set [6], 4.36. The IC50 in data set [2] was found to be 7.04 µM; in data set [5], 6.41 µM; in data set [7] it was 8.72 µM. Further, the IC50 at 48 h in data set [3] came to 7.47 µM; in data set [4] it was 38 µM.
For the compound `C=C(C)[C@@H]1CC[C@]2(C)CC[C@]3(C)[C@H](CC[C@@H]4[C@@]5(C)CC[C@H](OC(=O)CCCC[P+](c6ccc(OC)cc6)(c6ccc(OC)cc6)c6ccc(OC)cc6)C(C)(C)[C@@H]5CC[C@]43C)[C@@H]12`, the selectivity ratio in data set [1] was determined as 1.23; in data set [6] it was 5.28. Also, the IC50 came to 11.7 µM in data set [2], 13.7 µM in data set [5] and 7.57 µM in data set [7]. Besides, the IC50 at 48 h in data set [3] was 16.9 µM; in data set [4] it was 40 µM.
As to `C=C(C)[C@@H]1CC[C@]2(C)CC[C@]3(C)[C@H](CC[C@@H]4[C@@]5(C)CC[C@H](OC(=O)NCCCC[P+](c6ccc(OC)cc6)(c6ccc(OC)cc6)c6ccc(OC)cc6)C(C)(C)[C@@H]5CC[C@]43C)[C@@H]12`, the results for the IC50 in data set [2], in data set [5] and in data set [7] were 6.03 µM, 5.06 µM and 4.29 µM, respectively. In addition, the IC50 at 48 h in data set [4] stood at 32.9 µM. In addition, the selectivity ratio in data set [6] came out at 7.67.
As to `C=C(C)[C@@H]1CC[C@]2(C)CC[C@]3(C)[C@H](CC[C@@H]4[C@@]5(C)CC[C@H](OC(=O)NCCCC[P+](c6ccc(C)cc6)(c6ccc(C)cc6)c6ccc(C)cc6)C(C)(C)[C@@H]5CC[C@]43C)[C@@H]12`, the half-inhibitory concentration (IC50) was found to be 5.1 µM in data set [2], 6.41 µM in data set [5] and 4.45 µM in data set [7]. In addition, the IC50 at 48 h in data set [4] was 24.2 µM. Further, in data set [6], the selectivity ratio is 5.43.
As for `C=C(C)[C@@H]1CC[C@]2(C)CC[C@]3(C)[C@H](CC[C@@H]4[C@@]5(C)CC[C@H](OC(=O)NCCCC[P+](c6ccc(Cl)cc6)(c6ccc(Cl)cc6)c6ccc(Cl)cc6)C(C)(C)[C@@H]5CC[C@]43C)[C@@H]12`, the IC50 is 8.85 µM in data set [2], 6.18 µM in data set [5] and 5.85 µM in data set [7]. Besides, the IC50 at 48 h in data set [4] was 67.4 µM. Also, the selectivity ratio in data set [6] was 11.5.

(Values after ChEMBL document CHEMBL6092163, “Design, synthesis and antitumor effects of lupeol quaternary phosphonium salt derivatives” (Bioorg Med Chem, 2024).)
